In patent US11446285B2, “Methods for treating systemic lupus erythematosus” (University of Southern California, priority 2017, dated 2022):
“Also recorded” adds a separate entry of the source.

Assays:
Assay type in all cases: in vivo
MRL-lpr mice [1] = test: Protein urine scores in MRL-lpr mouse model of SLE; conditions: once daily s.c. for 6 weeks from 8 weeks of age, A(1-7) 0.5 mg/kg, Compound 7 2 mg/kg, compared to saline treated MRL-lpr mice
Experimental: Protein urine scores. At necropsy a final measurement or proteinuria was done using Urinalysis Reagent Strips (Mountainside Medical Equipment; Marcy, N.Y.). Protein scores signify the level of protein measured in the urine of each mouse and are scored as; 1-15 mg/dl protein, 2-30 mg/dl protein, 3-100 mg/dl protein and 4-300 mg/dl protein.
(§1) Our study uses the MRL/MpJ-Fas^lpr/J (MRL-lpr) as a mouse model of SLE and MRL/MpJ mice as controls (control mice do develop SLE but at a much later stage in life). These mice were broken into 4 groups that received once daily subcutaneous injections of treatment starting at 8 weeks of age for 6 weeks: a MRL/MpJ group (n=5) dosed daily with saline, an MRL-lpr group (n=8) dosed with saline, an MRL/MpJ group (n=8) dosed with 0.5 mg/kg of A(1-7), and an MRL/MpJ group (n=8) dosed with 2 mg/kg of Compound 7 (in an aqueous Tween 20 formulation). Throughout the study, the mice were monitored for proteinuria and face lesions. At necropsy, the kidneys and peripheral blood were harvested. The kidneys sections were stained with hematoxylin & eosin (H&E) for evaluation of glomerular health. Blood samples were processed and the plasma was stored at −20° C. for measurement of anti-dsDNA antibodies.

MRL-lpr mice [2] = test: Glomerulonephritis scores (H&E kidney sections) in MRL-lpr mouse model of SLE; conditions: once daily s.c. for 6 weeks, A(1-7) 0.5 mg/kg, Compound 7 2 mg/kg, compared to saline treated MRL-lpr mice
Experimental: Glomerulonephritis scores. Twenty glomeruli from kidney sections stained with H&E were scored for each mouse and a mean score was calculated. The glomerulonephritis score was based on a previously published score of 0-4 based on histopathological changes^6. The scores were defined as: 0, kidney without glomerular lesions; 1, minimal thickening of the mesangium; 2, noticeable increase in both mesangial and glomerular capillary cellularity; 3, preceding conditions, along with superimposed inflammatory exudates and capsular adhesions; 4, obliteration of the glomerular architecture included >70% of glomeruli.
as §1, with “Blood samples were processed and the plasma was stored at −20° C. for measurement of anti-dsDNA antibodies.” left out

MRL-lpr mice [3] = test: Face rash scores in MRL-lpr mouse model of SLE; conditions: scored 19, 25, 30, 37 and 40 days after start of treatment, A(1-7) 0.5 mg/kg, Compound 7 2 mg/kg s.c. daily, compared to saline treated MRL-lpr mice
From the text: Face rash scores. Mice were monitored daily for skin lesions. Scores of lesions of the face were taken 19, 25, 30, 37 and 40 days after the start of treatment; pictures were taken at different time points throughout the study. Face rash scores were based on location and extent of inflammation and hair loss as follows: 0, no noticeable irritation; 1, little redness, no hair loss or inflammation; 2, minimal rash, little hair loss or inflammation; 3, moderate rash, increased hair loss, light inflammation; 4, pronounced rash, near total hair loss and obvious inflammation; 5, rash is spreading up to the top of the face; 6, obvious wound above nose.
as §1

MRL-lpr mice [4] = test: Lymph node weights (inguinal and axillary) in MRL-lpr mouse model of SLE; conditions: 6 weeks of treatment, A(1-7) 0.5 mg/kg, Compound 7 2 mg/kg s.c. daily, compared to saline treated MRL-lpr mice
From the text: Lymph node weights. At necropsy, inguinal and axillary lymph nodes were dissected and trimmed of any surrounding fatty tissues. They were then weighed using an Adventurer precision balance (Ohaus Corporation, Parsippany, N.J.).
as §1

MRL-lpr mice [5] = test: Anti-dsDNA IgG titers in plasma (ELISA) in MRL-lpr mouse model of SLE; conditions: plasma at necropsy after 6 weeks of treatment, A(1-7) 0.5 mg/kg, Compound 7 2 mg/kg s.c. daily, compared to saline treated MRL-lpr mice
Experimental: Anti-dsDNA IgG titers. Peripheral blood was collected at necropsy by cardiac puncture with a 1 mL syringe fitted with a 22G needle, transferred into 2 ml K3E K3EDTA VACUETTE® tubes, and stored on ice. The tubes were then spun at 1,500 RPM for 15 min at 4° C. The plasma (top layer) was collected and stored at −20° C. The plasma was then diluted at 1:100 and used in a Mouse Anti-DNA IgG Antibody ELISA Kits (Chondrex Inc, Redmond, Wash.). The average concentration of duplicate samples was calculated against a standard curve and averaged for each mouse.
as §1, with “Blood samples were processed and the plasma was stored at −20° C. for measurement of anti-dsDNA antibodies.” left out

Row | Compound | protein urine score (proteinuria) at final measurement (MRL-lpr mice [1]) | glomerulonephritis score (glomerular pathologies) (MRL-lpr mice [2]) | face rash score (inflammation and hair loss) (MRL-lpr mice [3]) | face rash score (inflammation and hair loss) (MRL-lpr mice [3]; listed as compound 7) | inguinal and axillary lymph node weight (size) at necropsy (MRL-lpr mice [4]) | concentration of circulating anti-dsDNA IgG antibodies in plasma (MRL-lpr mice [5])
1 | CCCCOC(=O)NS(=O)(=O)c1ccc(OC(F)(F)F)cc1-c1ccc(Cn2ccnc2)cn1 [Compound 7] | significantly lower protein scores | significantly reduced the glomerular pathologies | significantly lower only at day 19 and 37 | significantly less overall pathologies | reduced the size of both lymph nodes; also recorded: reduced the size but not significantly | significantly lower levels of circulating IgG antibodies against dsDNA; also recorded: significantly lower concentrations
2 | Asp-Arg-Val-Tyr-Ile-His-Pro (DRVYIHP) [A(1-7), endogenous Mas receptor ligand angiotensin 1-7] | significantly lower protein scores | significantly reduced the glomerular pathologies | significantly less overall pathologies; also recorded: significantly lower score than the saline treated MRL-lrp mice throughout the study | – | reduced the size of both lymph nodes; also recorded: significantly smaller | significantly lower levels of circulating IgG antibodies against dsDNA; also recorded: significantly lower concentrations
